In patent US20250388584A1, “TPK AGONIST AND METHOD FOR TREATING NEURODEGENERATIVE DISEASES USING SAME” (SHANGHAI RAISING PHARMACEUTICAL CO., LTD., priority 2022, published 2025):
Like-named read-outs stand apart in the source and are kept apart here.

Biological target: TPK enzyme (Homo sapiens (Human), UniProt Q9H3S4)
Test: TPK enzyme activity test
Format: biochemical
Settings: for Emax: calculated with the effect of DMSO on TPK enzyme activity as 100%; for EC50: promoting effect on TPK enzyme activity

TPK enzyme, sequence (Q9H3S4 whole entry): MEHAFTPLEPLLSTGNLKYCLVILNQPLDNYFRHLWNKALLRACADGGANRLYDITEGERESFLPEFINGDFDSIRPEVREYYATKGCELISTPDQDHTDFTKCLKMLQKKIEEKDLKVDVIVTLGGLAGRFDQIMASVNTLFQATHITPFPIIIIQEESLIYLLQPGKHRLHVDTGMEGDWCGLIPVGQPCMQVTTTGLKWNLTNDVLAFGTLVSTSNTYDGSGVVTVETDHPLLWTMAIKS

Row | Structure (SMILES) | Emax (read-out: Emax) | EC50 | Emax
1 | O=C1CCc2ccc(OCCCCCN3c4ccccc4Sc4ccc(C(F)(F)F)cc43)cc2N1 [Compound 206, 7-((5-(2-(trifluoromethyl)-10H-phenothiazin-10-yl)pentyl)oxy)-3,4-dihydroquinolin-2(1H)-one] | 165% | 1450 nM | 
2 | O=C(CCn1cnc2c(oc3ccc(F)cc32)c1=O)N1CCN(c2cccc(C(F)(F)F)c2)CC1 [Compound 148, 8-fluoro-3-(3-oxo-3-(4-(3-(trifluoromethyl)phenyl)piperazin-1-yl)propyl)benzofuro[3,2-d]pyrimidin-4 (3H)-one] | 151% | 1990 nM | 
3 | Cc1ccc2[nH]c3c(=O)n(CCC(=O)NCCN(C)c4cccc(C(F)(F)F)c4)cnc3c2c1 [Compound 93, N-(2-(methyl(3-(trifluoromethyl)phenyl)amino)ethyl)-3-(8-methyl-4-oxo-4,5-dihydro-3H-pyrimido[5,4-b]indol-3-yl)propanamide] | 192% |  | 
4 | Cc1ccc2[nH]c3c(=O)n(CCC(=O)NCCCc4cccc(C(F)(F)F)c4)cnc3c2c1 [Compound 69, 3-(8-methyl-4-oxo-4,5-dihydro-3H-pyrimido[5,4-b]indol-3-yl)-N-(3-(3-(trifluoromethyl)phenyl)propyl)propanamide] | 168% |  | 
5 | Cc1ccc2c(c1)-c1nc(=O)n(CCC(=O)N3CCN(c4cccc(Cl)c4Cl)CC3)cc1CO2 [Compound 214] |  | 2380 nM | 137.60%
6 | O=C1c2ccccc2CN1CCCN1c2ccccc2Sc2ccccc21 [Compound 189, 2-(3-(10H-phenothiazin-10-yl)propyl)isoindolin-1-one] | 180% | 1200 nM | 
7 | Cc1ccc2[nH]c3c(=O)n(CCC(=O)NCc4cc(C(F)(F)F)cc(C(F)(F)F)c4)cnc3c2c1 [Compound 66, N-(3,5-bis(trifluoromethyl)benzyl)-3-(8-methyl-4-oxo-4,5-dihydro-3H-pyrimido[5,4-b]indol-3-yl)propanamide] | 138% |  | 
8 | Cc1ccc2[nH]c3c(=O)n(CCC(=O)NCc4cn5ccccc5n4)cnc3c2c1 [Compound 134, N-(imidazo[1,2-a]pyridin-2-ylmethyl)-3-(8-methyl-4-oxo-4,5-dihydro-3H-pyrimido[5,4-b]indol-3-yl)propanamide] | 125% |  | 
9 | COc1cc2[nH]c3c(=O)n(CC(=O)NCc4cccc(C(F)(F)F)c4)cnc3c2cc1OC [Compound 113] | 120% |  | 
10 | Cc1ccc2oc3c(=O)n(CCC(=O)N4CCN(c5cccc(C(F)(F)F)c5)CC4)cnc3c2c1 [Compound 57, 8-methyl-3-(3-oxo-3-(4-(3-(trifluoromethyl)phenyl)piperazin-1-yl)propyl)benzofuro[3,2-d]pyrimidin-4(3H)-one] | 159% | 1190 nM | 
11 | COc1ccc2c(c1)N1CCN(c3ccc(C)cc3)CC1C(C(=O)Nc1ccccc1)C2 (stereo not shown) [Compound 140] | 187% |  | 
12 | O=C(CCCn1cnc2c(c1=O)CCCc1ccccc1-2)N1CCN(c2cccc(C(F)(F)F)c2)CC1 [Compound 228, 3-(4-oxo-4-(4-(3-(trifluoromethyl)phenyl)piperazin-1-yl)butyl)-3,5,6,7-tetrahydro-4H-benzo[6,7]cyclohepta[1,2-d]pyrimidin-4-one] | 148% | 2130 nM | 
13 | Cc1ccc2[nH]c3c(=O)n(CCCN4CCN(c5cccc(C(F)(F)F)c5)CC4)cnc3c2c1 [Compound 49, 8-methyl-3-(3-(4-(3-(trifluoromethyl)phenyl)piperazin-1-yl)propyl)-3,5-dihydro-4H-pyrimido[5,4-b]indol-4-one] | 136% |  | 
14 | Cc1ccc2c(c1)-c1ncn(CCC(=O)N3CCC(Cc4ccc(F)cc4)CC3)c(=O)c1CC2 [Compound 225, 3-(3-(4-(4-fluorobenzyl)piperidin-1-yl)-3-oxopropyl)-9-methyl-5,6-dihydrobenzo[h]quinazolin-4(3H)-one] |  | 930 nM | 
15 | O=C1CCCCN1CCCN1CCSc2ccc(C(F)(F)F)cc21 [Compound 194, 1-(3-(6-(trifluoromethyl)-2,3-dihydro-4H-benzo[b][1,4]thiazin-4-yl)propyl)piperidin-2-one] | 139% |  | 
16 | O=C(CCn1cnc2c(sc3ccccc32)c1=O)N1CCC(O)(c2cccc(C(F)(F)F)c2)CC1 [Compound 147, 3-(3-(4-hydroxy-4-(3-(trifluoromethyl)phenyl)piperidin-1-yl)-3-oxopropyl)benzo[4,5]thieno[3,2-d]pyrimidin-4(3H)-one] | 160% | 7720 nM | 
17 | O=C1CCc2ccc(OCCCCN3c4ccccc4Sc4ccc(C(F)(F)F)cc43)cc2N1 [Compound 205, 7-(4-(2-(trifluoromethyl)-10H-phenothiazin-10-yl)butoxy)-3,4-dihydroquinolin-2(1H)-one] |  |  | 137.51%
18 | Cc1ccc2[nH]c3c(=O)n(CCC(=O)NCCNc4cccc(C(F)(F)F)c4)cnc3c2c1 [Compound 89, 3-(8-methyl-4-oxo-4,5-dihydro-3H-pyrimido[5,4-b]indol-3-yl)-N-(2-((3-(trifluoromethyl)phenyl)amino)ethyl)propanamide] | 132% |  | 
19 | O=C1CCc2ccc(OCCCCN3c4ccccc4Sc4ccc(C(F)(F)F)cc43)cc2N1 [Compound 204] |  | 107 nM | 186.22%
20 | Cc1ccc2c(c1)-c1ncn(CCC(=O)N3CCN(c4cccc(C(F)(F)F)c4)CC3)c(=O)c1CC2 [Compound 215, 9-methyl-3-(3-oxo-3-(4-(3-(trifluoromethyl)phenyl)piperazin-1-yl)propyl)-5,6-dihydrobenzo[h]quinazolin-4(3H)-one] | 173% | 1130 nM | 

The next lines start with the values.

Row | Emax (read-out: Emax) | EC50 | Emax | Structure (SMILES)
21 | 149% | 2050 nM |  | Cc1ccc2[nH]c3c(=O)n(CCC(=O)N4CCN(c5cc(Cl)ccc5Cl)CC4)cnc3c2c1 [Compound 2, 3-(3-(4-(2,5-dichlorophenyl)piperazin-1-yl)-3-oxopropyl)-8-methyl-3,5-dihydro-4H-pyrimido[5,4-b]indol-4-one]
22 | 158% | 1220 nM |  | COc1cccc(N2CCN(C(=O)Cn3cnc4c([nH]c5ccc(C)cc54)c3=O)CC2)c1 [Compound 45]
23 | 156% | 3960 nM |  | Cc1ccc2[nH]c3c(=O)n(CCC(=O)N4CCN(c5cc(Cl)ccc5C)CC4)cnc3c2c1 [Compound 42]
24 |  | 2320 nM |  | Cc1ccc2[nH]c3c(=O)n(CCC(=O)N4CCC(Cc5ccc(F)cc5)CC4)cnc3c2c1 [Compound 164]
25 | 121% |  |  | Cc1cccc2c1[nH]c1c(=O)n(CCC(=O)N3CCN(c4cccc(C(F)(F)F)c4)CC3)cnc12 [Compound 23, 6-methyl-3-(3-oxo-3-(4-(3-(trifluoromethyl)phenyl)piperazin-1-yl)propyl)-3,5-dihydro-4H-pyrimido[5,4-b]indol-4-one]
26 | 121% |  |  | Cc1ccc2c(c1)[nH]c1c(=O)n(CCC(=O)N3CCN(c4c(Cl)cccc4Cl)CC3)cnc12 [Compound 20, 3-(3-(4-(2,6-dichlorophenyl)piperazin-1-yl)-3-oxopropyl)-7-methyl-3,5-dihydro-4H-pyrimido[5,4-b]indol-4-one]
27 | 139% |  |  | O=C(CCn1cnc2c([nH]c3ccc(F)cc32)c1=O)N1CCN(c2cccc(C(F)(F)F)c2)CC1 [Compound 39]
28 | 141% |  |  | Cc1ccc2[nH]c3c(=O)n(CC(=O)N4CCN(c5cccc(C(F)(F)F)c5)CC4)cnc3c2c1 [Compound 41]
29 | 151% | 1210 nM |  | Cc1ccc(N2CCN(C(=O)CCn3cnc4c([nH]c5ccc(C)cc54)c3=O)CC2)c(C)c1 [Compound 31]
30 | 125% |  |  | Cc1ccc2[nH]c3c(=O)n(CCC(=O)N4CCN(c5ccccc5F)CC4)cnc3c2c1 [Compound 40]
31 | 145% | 463 nM |  | Cc1ccc2[nH]c3c(=O)n(CCCC(=O)N4CCN(c5cccc(Cl)c5Cl)CC4)cnc3c2c1 [Compound 15, 3-(4-(4-(2,3-dichlorophenyl)piperazin-1-yl)-4-oxobutyl)-8-methyl-3,5-dihydro-4H-pyrimido[5,4-b]indol-4-one]
32 | 139% | 2290 nM |  | O=C(CCn1cnc2c([nH]c3ccccc32)c1=O)N1CCN(c2cccc(C(F)(F)F)c2)CC1 [Compound 5, 3-(3-oxo-3-(4-(3-(trifluoromethyl)phenyl)piperazin-1-yl)propyl)-3,5-dihydro-4H-pyrimido[5,4-b]indol-4-one]
33 | 123% |  |  | Cc1ccc2[nH]c3c(=O)n(CCC(=O)N4CCN(c5ccccc5)CC4)cnc3c2c1 [Compound 32]
34 | 152% | 2440 nM |  | Cc1ccc2c(c1)[nH]c1c(=O)n(CCC(=O)N3CCN(c4cc(Cl)ccc4Cl)CC3)cnc12 [Compound 14, 3-(3-(4-(2,5-dichlorophenyl)piperazin-1-yl)-3-oxopropyl)-7-methyl-3,5-dihydro-4H-pyrimido[5,4-b]indol-4-one]
35 | 159% |  |  | Cc1ccc2[nH]c3c(=O)n(CCC(=O)N4CCN(c5cccc(Br)c5)CC4)cnc3c2c1 [Compound 18, 3-(3-(4-(3-bromophenyl)piperazin-1-yl)-3-oxopropyl)-8-methyl-3,5-dihydro-4H-pyrimido[5,4-b]indol-4-one]
36 | 144% | 360 nM |  | Cc1ccc2[nH]c3c(=O)n(CCC(=O)N4CCN(c5cc(C(F)(F)F)cc(C(F)(F)F)c5)CC4)cnc3c2c1 [Compound 16, 3-(3-(4-(3,5-bis(trifluoromethyl)phenyl)piperazin-1-yl)-3-oxopropyl)-8-methyl-3,5-dihydro-4H-pyrimido[5,4-b]indol-4-one]
37 | 207% |  |  | Cc1ccc2c(c1)[nH]c1c(=O)n(CCC(=O)N3CCN(c4cccc(C(F)(F)F)c4)CC3)cnc12 [Compound 22, 7-methyl-3-(3-oxo-3-(4-(3-(trifluoromethyl)phenyl)piperazin-1-yl)propyl)-3,5-dihydro-4H-pyrimido[5,4-b]indol-4-one]
38 | 137% | 2260 nM |  | COc1ccc2[nH]c(=O)c3c(ncn3CCCC(=O)N3CCN(c4cccc(Cl)c4Cl)CC3)c2c1 [Compound 231, 3-(4-(4-(2,3-dichlorophenyl)piperazin-1-yl)-4-oxobutyl)-8-methoxy-3,5-dihydro-4H-imidazo[4,5-c]quinolin-4-one]
39 | 152% | 3300 nM |  | Cc1ccc2[nH]c3c(=O)n(CCC(=O)N4CCN(c5cccc(C)c5C)CC4)cnc3c2c1 [Compound 44]
